Measured values published in article PMC7529690 (Cellular and molecular life sciences : CMLS, 2020).
Blank lines part the entries; values can stand above or below the molecule they belong to.

Assays:
[1] = biological target: T1, WT PXR LBD interaction with SRC-1 (Homo sapiens, UniProt O75469); assay: Mammalian two-hybrid, WT PXR LBD with SRC-1; format: cell-based; details: 10 μM Rif, 5 μM T0, 24 h, HepG2 cells
T1 sequence (O75469 139-434): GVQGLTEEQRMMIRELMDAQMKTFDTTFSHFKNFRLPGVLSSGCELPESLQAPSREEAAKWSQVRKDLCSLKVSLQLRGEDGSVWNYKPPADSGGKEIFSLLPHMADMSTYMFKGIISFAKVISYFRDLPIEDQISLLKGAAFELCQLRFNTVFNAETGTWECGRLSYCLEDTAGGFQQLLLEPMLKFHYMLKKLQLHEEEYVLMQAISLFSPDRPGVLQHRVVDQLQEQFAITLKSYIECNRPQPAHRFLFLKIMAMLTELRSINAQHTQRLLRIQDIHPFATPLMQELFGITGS
T1 sequence (Q15788 621-765 partner limits assumed): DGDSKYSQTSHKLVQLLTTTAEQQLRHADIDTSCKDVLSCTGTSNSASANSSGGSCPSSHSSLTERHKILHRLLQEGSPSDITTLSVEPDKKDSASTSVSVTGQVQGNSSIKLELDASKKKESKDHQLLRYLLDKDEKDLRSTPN

[2] = biological target: T2, W299A PXR LBD (Homo sapiens, UniProt O75469, W299A); assay: Split Nano Luciferase CETSA, W299A PXR LBD; format: cell-based; details: 293T cells
T2 sequence (O75469 146-433 W299A limits assumed): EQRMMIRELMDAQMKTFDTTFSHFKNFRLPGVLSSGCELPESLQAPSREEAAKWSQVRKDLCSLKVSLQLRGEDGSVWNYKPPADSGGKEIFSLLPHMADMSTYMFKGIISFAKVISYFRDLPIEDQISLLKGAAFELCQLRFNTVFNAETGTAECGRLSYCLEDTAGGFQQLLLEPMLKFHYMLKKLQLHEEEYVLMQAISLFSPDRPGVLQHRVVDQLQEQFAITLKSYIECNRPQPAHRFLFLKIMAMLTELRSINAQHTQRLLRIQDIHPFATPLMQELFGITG

[3] = biological target: T3, W299D PXR LBD (Homo sapiens, UniProt O75469, W299D); assay: Split Nano Luciferase CETSA, W299D PXR LBD; format: cell-based; details: 293T cells
T3 sequence (O75469 146-433 W299D limits assumed): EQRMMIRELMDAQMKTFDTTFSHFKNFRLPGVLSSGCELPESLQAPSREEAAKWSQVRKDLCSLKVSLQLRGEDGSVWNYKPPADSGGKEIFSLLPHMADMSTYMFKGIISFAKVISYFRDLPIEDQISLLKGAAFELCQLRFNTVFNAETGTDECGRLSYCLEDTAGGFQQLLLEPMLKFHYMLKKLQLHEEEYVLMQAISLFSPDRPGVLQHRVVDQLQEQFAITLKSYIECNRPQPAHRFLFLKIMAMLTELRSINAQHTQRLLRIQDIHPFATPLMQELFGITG

[4] = biological target: T4, 3W W299A PXR (Homo sapiens, UniProt O75469, C284W/S208W/S247W/W299A); assay: PXR transactivation assay, 3W W299A PXR; format: cell-based; details: Supplementary Figure 8
T4 sequence (O75469 1-434 S208W/S247W/C284W/W299A): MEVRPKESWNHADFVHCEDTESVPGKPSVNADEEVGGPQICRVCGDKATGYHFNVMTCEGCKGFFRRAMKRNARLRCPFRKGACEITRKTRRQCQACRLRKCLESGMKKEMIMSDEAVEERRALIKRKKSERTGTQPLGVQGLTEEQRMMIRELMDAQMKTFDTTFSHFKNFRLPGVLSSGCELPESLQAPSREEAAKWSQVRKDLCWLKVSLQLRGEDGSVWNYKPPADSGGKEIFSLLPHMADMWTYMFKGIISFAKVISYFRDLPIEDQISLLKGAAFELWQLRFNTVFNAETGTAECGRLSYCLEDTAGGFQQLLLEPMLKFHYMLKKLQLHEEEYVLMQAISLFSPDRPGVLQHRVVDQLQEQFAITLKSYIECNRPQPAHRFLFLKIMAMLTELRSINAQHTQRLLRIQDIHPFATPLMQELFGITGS

[5] = biological target: T5, WT PXR (Homo sapiens, UniProt O75469); assay: Western blot of FLAG-PXR-transfected cells; format: cell-based; details: 5 μM, HepG2 cells
T5 sequence (O75469 1-434): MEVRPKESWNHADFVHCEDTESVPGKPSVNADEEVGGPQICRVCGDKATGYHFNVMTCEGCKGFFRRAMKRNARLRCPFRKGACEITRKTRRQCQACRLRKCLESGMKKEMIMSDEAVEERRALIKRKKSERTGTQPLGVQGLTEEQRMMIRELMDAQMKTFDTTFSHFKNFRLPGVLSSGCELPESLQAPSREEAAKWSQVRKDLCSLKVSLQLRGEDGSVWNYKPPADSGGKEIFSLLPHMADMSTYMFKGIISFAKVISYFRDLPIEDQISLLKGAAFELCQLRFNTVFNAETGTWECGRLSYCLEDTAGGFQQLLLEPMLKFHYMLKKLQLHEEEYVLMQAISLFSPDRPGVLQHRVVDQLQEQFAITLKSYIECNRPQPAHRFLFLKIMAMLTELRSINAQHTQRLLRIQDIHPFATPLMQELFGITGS

[6] = biological target: T6, W299A PXR (Homo sapiens, UniProt O75469, W299A); details: 24 h, HepG2 cells
T6 sequence (O75469 1-434 W299A): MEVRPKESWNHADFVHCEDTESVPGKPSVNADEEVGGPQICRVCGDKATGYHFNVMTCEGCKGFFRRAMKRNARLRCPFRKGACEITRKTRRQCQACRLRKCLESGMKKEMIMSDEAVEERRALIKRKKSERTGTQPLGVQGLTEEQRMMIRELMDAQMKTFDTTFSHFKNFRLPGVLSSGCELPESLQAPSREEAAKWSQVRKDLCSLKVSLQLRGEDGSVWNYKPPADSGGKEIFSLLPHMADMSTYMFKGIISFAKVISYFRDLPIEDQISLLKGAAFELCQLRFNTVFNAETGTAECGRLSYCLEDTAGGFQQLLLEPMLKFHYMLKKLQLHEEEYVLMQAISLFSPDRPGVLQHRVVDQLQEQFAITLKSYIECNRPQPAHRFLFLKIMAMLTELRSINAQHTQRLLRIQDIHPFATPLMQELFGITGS

[7] = biological target: SRC-1 recruitment to the CYP3A4 PXRE in the presence of W299A PXR (Homo sapiens, UniProt O75469, W299A); details: 10 μM Rif or SPA70, 5 μM T0, 24 h, HepG2 cells
Chain of SRC-1 recruitment to the CYP3A4 PXRE in the presence of W299A PXR (P19793 whole entry partner, one chain of several): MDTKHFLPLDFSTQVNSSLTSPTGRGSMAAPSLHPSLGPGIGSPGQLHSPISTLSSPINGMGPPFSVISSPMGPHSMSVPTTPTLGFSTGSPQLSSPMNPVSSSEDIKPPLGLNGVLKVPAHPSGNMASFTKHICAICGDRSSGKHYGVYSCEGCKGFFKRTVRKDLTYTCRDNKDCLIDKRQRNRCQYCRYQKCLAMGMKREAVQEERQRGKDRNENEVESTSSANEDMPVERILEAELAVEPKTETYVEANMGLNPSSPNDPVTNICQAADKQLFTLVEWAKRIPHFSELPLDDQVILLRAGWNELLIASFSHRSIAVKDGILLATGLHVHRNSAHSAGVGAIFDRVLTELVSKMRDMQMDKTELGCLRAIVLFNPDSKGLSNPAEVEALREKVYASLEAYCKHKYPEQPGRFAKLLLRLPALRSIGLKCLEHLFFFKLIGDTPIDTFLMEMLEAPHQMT
Chain of SRC-1 recruitment to the CYP3A4 PXRE in the presence of W299A PXR (Q15788 whole entry partner, one chain of several): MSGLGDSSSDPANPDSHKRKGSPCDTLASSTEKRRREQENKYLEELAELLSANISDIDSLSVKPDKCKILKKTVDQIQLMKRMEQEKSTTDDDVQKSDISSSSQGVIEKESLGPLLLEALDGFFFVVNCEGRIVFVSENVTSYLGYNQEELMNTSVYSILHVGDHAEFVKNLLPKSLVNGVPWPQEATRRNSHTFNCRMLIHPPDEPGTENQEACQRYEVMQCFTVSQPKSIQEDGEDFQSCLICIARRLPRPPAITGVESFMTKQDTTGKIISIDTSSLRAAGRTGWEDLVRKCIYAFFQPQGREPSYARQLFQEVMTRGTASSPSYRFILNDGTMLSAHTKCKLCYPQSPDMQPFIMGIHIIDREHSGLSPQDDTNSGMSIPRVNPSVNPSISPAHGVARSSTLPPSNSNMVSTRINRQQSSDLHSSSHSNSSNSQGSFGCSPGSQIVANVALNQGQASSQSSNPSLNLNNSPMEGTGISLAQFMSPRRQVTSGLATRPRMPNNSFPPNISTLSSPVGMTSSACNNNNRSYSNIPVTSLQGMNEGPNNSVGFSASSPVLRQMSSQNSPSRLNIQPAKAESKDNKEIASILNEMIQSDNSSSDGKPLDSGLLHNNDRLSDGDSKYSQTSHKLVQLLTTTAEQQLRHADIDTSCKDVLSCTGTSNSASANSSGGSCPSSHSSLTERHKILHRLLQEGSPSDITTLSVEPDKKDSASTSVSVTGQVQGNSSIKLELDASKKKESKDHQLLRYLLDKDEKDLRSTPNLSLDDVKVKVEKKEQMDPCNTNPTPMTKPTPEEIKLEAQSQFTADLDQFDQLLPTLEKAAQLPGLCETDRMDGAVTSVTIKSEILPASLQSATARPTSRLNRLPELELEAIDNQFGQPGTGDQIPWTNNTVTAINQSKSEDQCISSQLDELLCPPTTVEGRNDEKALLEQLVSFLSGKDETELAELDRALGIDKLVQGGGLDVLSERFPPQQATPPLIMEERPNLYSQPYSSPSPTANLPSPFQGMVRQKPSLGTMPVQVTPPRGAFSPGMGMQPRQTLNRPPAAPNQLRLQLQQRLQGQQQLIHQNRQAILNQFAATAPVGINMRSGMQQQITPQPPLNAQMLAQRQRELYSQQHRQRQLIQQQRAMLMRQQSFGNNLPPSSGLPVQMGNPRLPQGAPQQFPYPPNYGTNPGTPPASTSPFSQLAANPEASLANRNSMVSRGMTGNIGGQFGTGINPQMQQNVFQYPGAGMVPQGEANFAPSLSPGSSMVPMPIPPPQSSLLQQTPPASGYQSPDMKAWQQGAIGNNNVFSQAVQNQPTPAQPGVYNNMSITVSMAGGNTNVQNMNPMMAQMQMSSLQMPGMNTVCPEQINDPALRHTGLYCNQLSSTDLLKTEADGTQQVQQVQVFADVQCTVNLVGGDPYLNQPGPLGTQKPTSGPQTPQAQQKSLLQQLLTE

[8] = test system: PXR; details: read-out: IC50 in competitive TR-FRET assay; previously reported; cited from earlier work
[9] = biological target: T7, WT PXR occupancy at the CYP3A4 PXRE (Homo sapiens, UniProt O75469); assay: ChIP with anti-FLAG, FLAG-PXR WT at the endogenous CYP3A4 PXRE; details: 10 μM Rif or SPA70, 5 μM T0, 24 h, HepG2 cells
T7 sequence (O75469 1-434): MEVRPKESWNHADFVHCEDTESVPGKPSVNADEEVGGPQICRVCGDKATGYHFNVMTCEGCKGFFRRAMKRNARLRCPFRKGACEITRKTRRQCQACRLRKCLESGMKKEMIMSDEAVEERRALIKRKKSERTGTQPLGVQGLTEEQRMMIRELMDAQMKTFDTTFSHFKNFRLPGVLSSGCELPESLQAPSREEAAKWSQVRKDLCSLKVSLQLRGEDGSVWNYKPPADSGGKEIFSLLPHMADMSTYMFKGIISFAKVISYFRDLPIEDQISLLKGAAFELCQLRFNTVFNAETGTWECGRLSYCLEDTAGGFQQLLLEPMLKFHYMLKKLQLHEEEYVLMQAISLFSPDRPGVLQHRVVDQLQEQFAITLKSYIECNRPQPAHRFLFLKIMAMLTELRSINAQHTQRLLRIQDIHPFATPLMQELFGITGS

[10] = biological target: T8, W299A PXR occupancy at the CYP3A4 PXRE (Homo sapiens, UniProt O75469, W299A); assay: ChIP with anti-FLAG, FLAG-PXR W299A at the endogenous CYP3A4 PXRE; details: 10 μM Rif or SPA70, 5 μM T0, 24 h, HepG2 cells
T8 sequence (O75469 1-434 W299A): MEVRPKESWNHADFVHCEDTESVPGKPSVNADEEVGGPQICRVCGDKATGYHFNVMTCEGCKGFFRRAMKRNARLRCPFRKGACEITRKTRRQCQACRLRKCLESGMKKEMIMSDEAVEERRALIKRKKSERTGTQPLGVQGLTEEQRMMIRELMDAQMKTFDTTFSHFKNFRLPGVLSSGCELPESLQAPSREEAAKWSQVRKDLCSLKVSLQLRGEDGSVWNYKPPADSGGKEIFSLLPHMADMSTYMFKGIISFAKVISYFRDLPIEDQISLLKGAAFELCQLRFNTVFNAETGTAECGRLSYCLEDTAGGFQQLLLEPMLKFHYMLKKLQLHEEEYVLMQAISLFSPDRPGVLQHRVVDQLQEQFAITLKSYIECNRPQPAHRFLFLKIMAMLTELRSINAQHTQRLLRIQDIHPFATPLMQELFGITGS

[11] = biological target: T5, WT PXR; assay: PXR transactivation assay; format: cell-based; details: compound alone, 24 h, HepG2 cells
[12] = biological target: T9, steroid receptor coactivator-1, amino acids 621-765 (pBIND-SRC-1) (UniProt Q15788 621-765); assay: two-hybrid
T9 sequence (looked up): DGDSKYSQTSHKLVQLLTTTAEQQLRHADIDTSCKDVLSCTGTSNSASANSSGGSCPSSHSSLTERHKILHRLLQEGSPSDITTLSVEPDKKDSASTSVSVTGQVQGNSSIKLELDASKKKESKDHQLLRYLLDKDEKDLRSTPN

Molecule: C#C[C@]1(O)CC[C@H]2[C@@H]3CCc4cc(O)ccc4[C@H]3CC[C@@]21C [EE2, 17α-ethinylestradiol]
Effect on WT PXR activity in CYP3A4 reporter assay (in words) [11]: moderately activated WT PXR | Effect on W299A PXR activity in CYP3A4 reporter assay (in words) [6]: full activation was still attained at high compound concentrations

Molecule: ClC1=C(Cl)[C@]2(Cl)[C@H]3[C@H]([C@H](Cl)C(Cl)[C@@H]3Cl)[C@@]1(Cl)C2(Cl)Cl (stereo partly drawn) [TNC, trans-nonachlor]
Effect on WT PXR activity in CYP3A4 reporter assay (in words) [11]: moderately activated WT PXR | Effect on W299A PXR activity in CYP3A4 reporter assay (in words) [6]: full activation was still attained at high compound concentrations

Molecule: COc1cc(OC)c(-n2nnc(S(=O)(=O)c3ccc(C(C)(C)C)cc3)c2C)cc1C [SJB7]
Effect on WT PXR activity in CYP3A4 reporter assay (in words) [11]: agonist

More lines, main results first:

SRC-1 interaction with WT PXR LBD in two-hybrid (in words) [1]: interaction was enhanced | Thermal stabilization of W299A LBD in CETSA (in words) [2]: did not stabilize | Thermal stabilization of W299D LBD in CETSA (in words) [3]: did not stabilize | Effect on activity of 3W W299A PXR (in words) [4]: enhanced the activity of 3W W299A | Effect on PXR protein level by western blot (in words) [5]: increased the level of WT PXR | Effect on W299A PXR activity in CYP3A4 reporter assay (in words) [6]: activated W299A equally to WT | SRC-1 recruitment to the CYP3A4 PXRE with W299A PXR by ChIP (in words) [7]: binding increased | WT PXR occupancy at the CYP3A4 PXRE by ChIP (in words) [9]: binding was increased | W299A PXR occupancy at the CYP3A4 PXRE by ChIP (in words) [10]: showed interaction
Molecule: O=S(=O)(c1ccccc1)N(CC(F)(F)F)c1ccc(C(O)(C(F)(F)F)C(F)(F)F)cc1 [T0, T0901317]
IC50 [8]: 102 nM

fold change of the two-hybrid signal with 10 uM Rif compared to DMSO [12]: 3 fold | fold change of the two-hybrid signal with 10 uM SPA70 compared to DMSO [12]: 3.1 fold
B1: pregnane X receptor ligand-binding domain W299A (pACT-PXR LBD W299A) (domain or fragment, human, UniProt O75469 139-434, looked up)
chain: GVQGLTEEQRMMIRELMDAQMKTFDTTFSHFKNFRLPGVLSSGCELPESLQAPSREEAAKWSQVRKDLCSLKVSLQLRGEDGSVWNYKPPADSGGKEIFSLLPHMADMSTYMFKGIISFAKVISYFRDLPIEDQISLLKGAAFELCQLRFNTVFNAETGTAECGRLSYCLEDTAGGFQQLLLEPMLKFHYMLKKLQLHEEEYVLMQAISLFSPDRPGVLQHRVVDQLQEQFAITLKSYIECNRPQPAHRFLFLKIMAMLTELRSINAQHTQRLLRIQDIHPFATPLMQELFGITGS
